Source: article PMC8894567 (The Journal of Antibiotics, 2022)

Assays:
influenza virus A H7N1 = conditions: cited from earlier work
[1] = tested on: influenza virus A/Puerto Rico/8/34 (H1N1); assay type: cell-based
influenza type B = conditions: cited from earlier work
influenza type A virus = conditions: cited from earlier work
herpes virus = conditions: read-out: EC50 antiherpetic; cited from earlier work
HIV = conditions: read-out: EC50 anti-HIV activity; cited from earlier work
Flu A H1N1 strain = conditions: cited from earlier work

| Compound | protection index (influenza type B) | protection index (influenza type A virus) | also measured |
| --- | --- | --- | --- |
| 3-oxime of betulonic acid and L-leucine-28-amide |  |  | EC50 (influenza virus A H7N1): 2.17 µM; suppression of influenza virus A H7N1 (influenza virus A H7N1): 90% |
| CC(N)C12CC3CC(CC(C3)C1)C2 (stereo not drawn) [Rimantadine] |  |  | SI, selectivity index CC50/IC50 [1]: 5 |
| COC(=O)[C@]12CC[C@@H](C)[C@H](C)[C@H]1C1=CC[C@@H]3[C@@]4(C)CC[C@H](O)C(C)(C)[C@@H]4CC[C@@]3(C)[C@]1(C)CC2 [methyl ester of ursolic acid] | 80% | 60% |  |
| Alnincanone | 80% | 60% |  |
| Ethyl β-alaninate diamide 2,3 seco-lupane |  |  | EC50 (herpes virus): 4.1 µM; EC50 (HIV): 5.1 µM |
| echinocystic acid | 80% | 60% |  |
| lupane 3,4-seco-3,28-bis-N,N-methylpiperazine-amide |  |  | IC50 (Flu A H1N1 strain): 27 µM |
